For experiment [1], the system named is Y133 ptk2Δ. It is filed as cell-based, S. cerevisiae. Particulars: 1% BMIM-Cl, aerobic and anaerobic conditions. From the text:
We deleted PTK2 in our xylose fermenting yeast GLBRCY133 (Parreiras et al.,2014).

The subject of experiment [2] is Y133 ptk2Δ. It is filed as cell-based, S. cerevisiae. Particulars: relative to Y133, p<0.01. Here is the method: Compounds, initial screening, and IC50 determination: Compounds tested were purchased from Sigma-Aldrich. […] Plates were read on a TECAN M1000 over a 48 hour growth period. […] When presented, IC50 values for growth inhibition were calculated from triplicate 8 point dose curves and SigmaPlot 12.0. When presented, error bars are mean±standard error (S.E.) of at least 3 replicates.

The subject of experiment [3] is S. cerevisiae. Kind of experiment: Dose curve for chemical genomic profiling concentration. Format: cell-based. Particulars: 88 μg/ml, YP-galactose media, 24 hours. As for the experimental part: Chemical genomic analysis: Chemical genomic analysis of poacic acid was performed as described as described previously (Fung et al., 2013; Parsons et al., 2006). The tested yeast deletion collection had 4000 strains using the genetic background described in Andrusiak (2012). The optimal inhibitory concentration of poacic acid for chemical genomic profiling (70-80% growth versus solvent control in YP-galactose media after 24 hours of growth) was determined using an 8 point dose curve. A concentration of 88 μg/ml inhibited growth within this range. 200 μl cultures of the pooled, deletion collection of S. cerevisiae deletion mutants were grown with 88 μg/ml poacic acid or a DMSO control in triplicate for 48 hours at 30° C. Genomic DNA was extracted using the Epicentre MasterPure™ Yeast DNA purification kit. Mutant-specific molecular barcodes were amplified with specially designed multiplex primers (Smith et al., 2009). The barcodes were sequenced using an Illumina MiSeq. Three replicates of each condition (poacic acid vs. DMSO) were sequenced. One DMSO control was lost due to poor sequencing reads. The barcode counts for each yeast deletion mutant in the presence of poacic acid were normalized against the DMSO control conditions to define sensitivity or resistance of individual strains. […]

With `CCCCn1cc[n+](C)c1.[Cl-]` [BMIM-Cl, 1-butyl-3-methylimidazolium chloride], the “tolerance and fermentative capacity of PTK2 deletion” value in experiment [1] was “greater tolerance and has greater fermentative capacity”. Also, the “tolerance conferred by deletion of PTK2 in Y133” value in experiment [2] is “significantly greater tolerance”.

As to `CC(=O)[O-].CCn1cc[n+](C)c1` [EMIM-Ac, 1-ethyl-3-methylimidazolium acetate], the “tolerance conferred by deletion of PTK2 in Y133” value in experiment [2] is listed as “significantly greater tolerance”.

In the case of poacic acid, in experiment [3], the “growth versus solvent control” value is 70-80%.
